Assay results taken from patent publication US12478569B2, “Compositions methods and device for enhancing dental care based on dead sea salt and cannabinoid or extract of cannabis plant” (CANNIBITE BVBA, priority 2019, dated 2025).

Columns and labels:
Type in all cases: cell-based
[1] = tested on: gingival plaque; experiment: Cannabinoid effects on gingival plaque in vitro in subjects with gum disease (FIG. 2)
Description: FIG. 2A-2F illustrate the effects of selected cannabinoids on gingival plaque in various individuals. Samples of gingival plaque were obtained from individuals A-F with various degrees of gum disease, samples were plated in the presence of various cannabinoids, cannabinoid formulations or essential oils, and cultured as above (samples A-F correspond to plates 1-6).
The effects of cannabinoids on gum disease was further investigated in a series of subjects with various degrees of gingivitis (an earliest and mildest form) or periodontitis (full-fledged gum disease), the severity of gum disease was further evaluated using Dutch Periodontal Screening Index (DPSI).
Samples of gingival plaque were obtained from 6 subjects (A-F) with various degrees of gum disease, samples were plated and cultured for 2 days at 37° C. in the presence of various cannabinoids and cannabinoid combinations.

[2] = tested on: dental flora (plaque); experiment: Cannabinoid sensitivity tests in vitro on dental flora (plaque) of 10 subjects; parameters: key to suppression of bacterial flora (score): Increasing scores (+) indicate an increased suppression of bacterial flora; details: for suppression of bacterial flora (score): dental flora in vitro
Description: Subsequently, in a more extended in vitro trial the effectiveness of cannabinoids was determined in 10 subjects (A-J). Samples of dental flora (plaque) were collected by swabs, scrapes, and were tested on the following panel of cannabinoids and cannabinoid combinations: • 1=CBD • 2=CBD+CBN • 3=CBD+CBN+CBG • 4=CBD+CBN+CBG+CBC • 5=CBD+CBN+CBG+CBC+CBGA • 6=CHG reference antimicrobial agent • 7=control with no antiseptic or antimicrobial agent.
Bacterial sensitivity was determined by conventional methods, e.g., growth on selective media, microscopic fluorescence examination.

[3] = tested on: dental biofilm/plaque; experiment: Preliminary case study: dental biofilm/plaque sample plated and cultured in the presence of cannabinoids (FIG. 1); details: dental plaque sample cultured for 2 days at 37° C.
Description: FIG. 1 illustrates a case study on the antimicrobial effect of cannabinoids on dental plaque. A sample of dental plaque was plated in the presence CBD or CBG and a reference antimicrobial agent (chlorhexidine gluconate, CHG), and cultured for 2 days at 37° C. The resulting bacterial colonies are shown.
A sample of dental biofilm/plaque was obtained, plated and cultured for 2 days at 37° C. in the presence of two types of cannabinoids, CBD and CBG, and Chlorhexidine (CHG) as a reference antimicrobial agent.

[4] = subject C, periodontitis, DPSI score −3, 2 days at 37° C.
[5] = subject E, advanced periodontitis, DPSI score +3, 2 days at 37° C.
[6] = subject F, moderate gingivitis, DPSI score 1, 2 days at 37° C.
[7] = subject A, moderate gingivitis, DPSI score 1, 2 days at 37° C.
[8] = subject D, moderate gingivitis, DPSI score 2, 2 days at 37° C.

Structure (SMILES) | Relative effectiveness [1, 4] | Relative effectiveness [1, 5] | Relative effectiveness [1, 6] | bacterial growth in the saturated zone [3] | Relative effectiveness [1, 7] | Relative effectiveness [1, 8] | further results
C=C(C)[C@@H]1CCC(C)=C[C@H]1c1c(O)cc(CCCCC)cc1O [CBD, Cannabidiol] | CBC > CBG > CBD > CBN | CBG ≈ CBGA > CBC > CBD | CBC > CBG ≈ CBGA ≈ CBD | no growth |  |  | Relative effectiveness ([1]; subject B, no gingivitis and no pathology, DPSI score 0, 2 days at 37° C.): POM ≈ POM form. ≈ CBD > CBD form.; effectiveness on suppression of dental flora in vitro ([2]; in many individuals): sufficiently effective; most effective panel of cannabinoids ([2]; patient B): most effective
CCCCCc1cc(O)c2c(c1)OC(C)(CCC=C(C)C)C=C2 (stereo not drawn) [CBC, Cannabichromene] | CBC > CBG > CBD > CBN | CBG ≈ CBGA > CBC > CBD | CBC > CBG ≈ CBGA ≈ CBD |  | CBG > CBGA > CBN ≈ CBC | CBGA > CBC > CBG ≈ CBN | 
CCCCCc1cc(O)c(C/C=C(\C)CCC=C(C)C)c(O)c1 [CBG, Cannabigerol] | CBC > CBG > CBD > CBN | CBG ≈ CBGA > CBC > CBD | CBC > CBG ≈ CBGA ≈ CBD | lesser bacterial growth | CBG > CBGA > CBN ≈ CBC | CBGA > CBC > CBG ≈ CBN | 
CCCCCc1cc(O)c2c(c1)OC(C)(C)c1ccc(C)cc1-2 [CBN, Cannabinol] | CBC > CBG > CBD > CBN |  |  |  | CBG > CBGA > CBN ≈ CBC | CBGA > CBC > CBG ≈ CBN | 
N=C(NCCCCCCNC(=N)NC(=N)Nc1ccc(Cl)cc1)NC(=N)Nc1ccc(Cl)cc1.O=C(O)[C@H](O)[C@@H](O)[C@H](O)[C@H](O)CO.O=C(O)[C@H](O)[C@@H](O)[C@H](O)[C@H](O)CO [CHG, chlorhexidine gluconate] |  |  |  | lesser bacterial growth |  |  | suppression of bacterial flora (score) ([2]; subject A): + +; suppression of bacterial flora (score) ([2]; subject B): + +; suppression of bacterial flora (score) ([2]; subject C): +; suppression of bacterial flora (score) ([2]; subject D): + +; suppression of bacterial flora (score) ([2]; subject E): − −; suppression of bacterial flora (score) ([2]; subject F): − −; suppression of bacterial flora (score) ([2]; subject G): + + +; suppression of bacterial flora (score) ([2]; subject H): +; suppression of bacterial flora (score) ([2]; subject I): + +; suppression of bacterial flora (score) ([2]; subject J): − −
CCCCCc1cc(O)c(C/C=C(\C)CCC=C(C)C)c(O)c1C(=O)O [CBGA, Cannabigerolic acid] |  | CBG ≈ CBGA > CBC > CBD | CBC > CBG ≈ CBGA ≈ CBD |  | CBG > CBGA > CBN ≈ CBC | CBGA > CBC > CBG ≈ CBN | 
